From EP0908457B1, “3-(1,2-benzisothiazol- and isoxazol-5-Y1)-2,4(1H,3H)-pyrimidinedione or thione and 3-(1,2-benzisothiazol- and isoxazol-5-y1)-4(3H)-pyrimidinone or thione herbicidal agents” (BASF AKTIENGESELLSCHAFT, priority 1997, dated 1999)

Tests used:
Cyperus iria = assay: Preemergence weed control under flooded paddy conditions, CYPIR (Rice Flatsedge); assay type: in vivo; conditions: flooded paddy; on herbicidal effect rating, CYPIR: meaning of each grade not given here
[1] = test system: Echinochloa oryzoides (Ard.) Fritsch.; assay: Preemergence weed control under flooded paddy conditions, ECHORC (Watergrass (Calif.)); assay type: in vivo; conditions: flooded paddy; on herbicidal effect rating, ECHORC: meaning of each grade not given here
[2] = test system: Cyperus serotinus, Rottb.; assay: Preemergence weed control under flooded paddy conditions, CYPSE (Flatsedge); assay type: in vivo; on herbicidal effect rating, CYPSE: meaning of each grade not given here
Sagittaria pygmaea, L. = assay: Preemergence weed control under flooded paddy conditions, SAGPY (Arrowhead (Pygmaea)); assay type: in vivo; conditions: flooded paddy; on herbicidal effect rating, SAGPY: meaning of each grade not given here
[3] = test system: Oryza sativa, (L.) Tebonnet; assay: Rice tolerance to post-transplant applications under flooded paddy conditions (Example 187), ORYSAT (Rice, Tebonnet); on herbicidal effect rating ORYSAT: meaning of each grade not given here
[4] = test system: Monochoria vaginalis, Presl.; assay: Preemergence weed control under flooded paddy conditions, MOOVA (Monochoria); assay type: in vivo; conditions: flooded paddy; on herbicidal effect rating, MOOVA: meaning of each grade not given here
[5] = Rate 0.0320 kg/ha, preemergence, rated three to four weeks after treatment
[6] = Rate 0.0620 kg/ha, preemergence, rated three to four weeks after treatment
[7] = Rate 0.1250 kg/ha, preemergence, rated three to four weeks after treatment
[8] = Rate 0.2500 kg/ha, preemergence, rated three to four weeks after treatment
[9] = Rate 0.0320 kg/ha, rated three to four weeks after treatment
[10] = Rate 0.0620 kg/ha, rated three to four weeks after treatment
[11] = Rate 0.1250 kg/ha, rated three to four weeks after treatment
[12] = Rate 0.2500 kg/ha, rated three to four weeks after treatment
[13] = Rate 0.0320 kg/ha, preemergence, rated 3-4 weeks after treatment
[14] = Rate 0.0620 kg/ha, preemergence, rated 3-4 weeks after treatment
[15] = Rate 0.1250 kg/ha, preemergence, rated 3-4 weeks after treatment
[16] = Rate 0.2500 kg/ha, preemergence, rated 3-4 weeks after treatment
[17] = Rate 0.5000 kg/ha, preemergence, rated 3-4 weeks after treatment
[18] = Rate 0.0320 kg/ha, preemergence weeds, rated three to four weeks after treatment
[19] = Rate 0.0620 kg/ha, preemergence weeds, rated three to four weeks after treatment
[20] = Rate 0.1250 kg/ha, preemergence weeds, rated three to four weeks after treatment
[21] = Rate 0.2500 kg/ha, preemergence weeds, rated three to four weeks after treatment
[22] = Rate 0.0313 kg/ha, preemergence, rated three to four weeks after treatment
[23] = Rate 0.0625 kg/ha, preemergence, rated three to four weeks after treatment

## Cn1c(C(F)(F)F)cc(=O)n(-c2ccc3snc(COCc4cccc([N+](=O)[O-])c4)c3c2)c1=O [Example 588, 2,4(1H,3H)-Pyrimidinedione, 1-methyl-3-{3-{[(m-nitrobenzyl)oxy]methyl}-1,2-benzisothiazol-5-yl}-6-(trifluoromethyl)-]
Cyperus iria; [5]
  herbicidal effect rating, CYPIR: 0.0
Cyperus iria; [6]
  herbicidal effect rating, CYPIR: 2.0
Cyperus iria; [7]
  herbicidal effect rating, CYPIR: 6.0
Cyperus iria; [8]
  herbicidal effect rating, CYPIR: 6.0
[1]; [5]
  herbicidal effect rating, ECHORC: 4.0
[1]; [6]
  herbicidal effect rating, ECHORC: 7.0
[1]; [7]
  herbicidal effect rating, ECHORC: 9.0
[1]; [8]
  herbicidal effect rating, ECHORC: 7.0
[2]; [5]
  herbicidal effect rating, CYPSE: 0.0
[2]; [6]
  herbicidal effect rating, CYPSE: 0.0
[2]; [7]
  herbicidal effect rating, CYPSE: 5.0
[2]; [8]
  herbicidal effect rating, CYPSE: 5.0
Sagittaria pygmaea, L.; [5]
  herbicidal effect rating, SAGPY: 0.0
Sagittaria pygmaea, L.; [6]
  herbicidal effect rating, SAGPY: 0.0
Sagittaria pygmaea, L.; [7]
  herbicidal effect rating, SAGPY: 0.0
Sagittaria pygmaea, L.; [8]
  herbicidal effect rating, SAGPY: 0.0
[3]; [9]
  herbicidal effect rating ORYSAT: 0.0
[3]; [10]
  herbicidal effect rating ORYSAT: 3.0
[3]; [11]
  herbicidal effect rating ORYSAT: 3.0
[3]; [12]
  herbicidal effect rating ORYSAT: 3.0
[4]; [7]
  herbicidal effect rating, MOOVA: 7.0
[4]; [8]
  herbicidal effect rating, MOOVA: 8.0

## Cn1c(C(F)(F)F)cc(=O)n(-c2ccc3snc(COS(=O)(=O)c4ccccc4)c3c2)c1=O [Example 382, 2,4(1H,3H)-Pyrimidinedione, 3-[3-(hydroxymethyl)-1,2-benzisothiazol-5-yl]-1-methyl-6-(trifluoromethyl)-, benzenesulfonate (ester)]
Cyperus iria; [5]
  herbicidal effect rating, CYPIR: 5.0
Cyperus iria; [6]
  herbicidal effect rating, CYPIR: 6.0
Cyperus iria; [7]
  herbicidal effect rating, CYPIR: 7.0
Cyperus iria; [8]
  herbicidal effect rating, CYPIR: 9.0
[1]; [5]
  herbicidal effect rating, ECHORC: 0.0
[1]; [6]
  herbicidal effect rating, ECHORC: 3.0
[1]; [7]
  herbicidal effect rating, ECHORC: 4.0
[1]; [8]
  herbicidal effect rating, ECHORC: 7.0
[2]; [5]
  herbicidal effect rating, CYPSE: 0.0
[2]; [6]
  herbicidal effect rating, CYPSE: 0.0
[2]; [7]
  herbicidal effect rating, CYPSE: 7.0
[2]; [8]
  herbicidal effect rating, CYPSE: 7.0
Sagittaria pygmaea, L.; [5]
  herbicidal effect rating, SAGPY: 3.0
Sagittaria pygmaea, L.; [6]
  herbicidal effect rating, SAGPY: 4.0
Sagittaria pygmaea, L.; [7]
  herbicidal effect rating, SAGPY: 7.0
Sagittaria pygmaea, L.; [8]
  herbicidal effect rating, SAGPY: 9.0
[3]; [9]
  herbicidal effect rating ORYSAT: 5.0
[3]; [10]
  herbicidal effect rating ORYSAT: 6.0
[3]; [11]
  herbicidal effect rating ORYSAT: 6.0
[3]; [12]
  herbicidal effect rating ORYSAT: 5.0
[4]; [5]
  herbicidal effect rating, MOOVA: 9.0
[4]; [6]
  herbicidal effect rating, MOOVA: 9.0
[4]; [7]
  herbicidal effect rating, MOOVA: 9.0
[4]; [8]
  herbicidal effect rating, MOOVA: 9.0

## CCCS(=O)(=O)NC(=O)COc1ccccc1-c1nsc2ccc(-n3c(=O)cc(C(F)(F)F)n(C)c3=O)cc12 [Example 556, Acetamide, 2-{o-{5-[3,6-dihydro-3-methyl-2,6-dioxo-4-(trifluoromethyl)-1(2H)-pyrimidinyl]-1,2-benzisothiazol-3-yl}phenoxy}-N-(propylsulfonyl)-]
Cyperus iria; [13]
  herbicidal effect rating, CYPIR: 0.0
Cyperus iria; [14]
  herbicidal effect rating, CYPIR: 2.0
Cyperus iria; [15]
  herbicidal effect rating, CYPIR: 7.0
Cyperus iria; [16]
  herbicidal effect rating, CYPIR: 9.0
Cyperus iria; [17]
  herbicidal effect rating, CYPIR: 3.0
[1]; [13]
  herbicidal effect rating, ECHORC: 2.9
[1]; [14]
  herbicidal effect rating, ECHORC: 3.6
[1]; [15]
  herbicidal effect rating, ECHORC: 4.4
[1]; [16]
  herbicidal effect rating, ECHORC: 9.0
[1]; [17]
  herbicidal effect rating, ECHORC: 9.0
[2]; [13]
  herbicidal effect rating, CYPSE: 2.0
[2]; [14]
  herbicidal effect rating, CYPSE: 2.0
[2]; [15]
  herbicidal effect rating, CYPSE: 9.0
[2]; [16]
  herbicidal effect rating, CYPSE: 9.0
[2]; [17]
  herbicidal effect rating, CYPSE: 0.0
Sagittaria pygmaea, L.; [13]
  herbicidal effect rating, SAGPY: 0.0
Sagittaria pygmaea, L.; [14]
  herbicidal effect rating, SAGPY: 0.0
Sagittaria pygmaea, L.; [15]
  herbicidal effect rating, SAGPY: 6.0
Sagittaria pygmaea, L.; [16]
  herbicidal effect rating, SAGPY: 4.0
Sagittaria pygmaea, L.; [17]
  herbicidal effect rating, SAGPY: 3.0
[3]; Rate 0.0320 kg/ha, rated 3-4 weeks after treatment
  herbicidal effect rating ORYSAT: 4.0
[3]; Rate 0.0620 kg/ha, rated 3-4 weeks after treatment
  herbicidal effect rating ORYSAT: 7.0
[3]; Rate 0.1250 kg/ha, rated 3-4 weeks after treatment
  herbicidal effect rating ORYSAT: 8.0
[3]; Rate 0.2500 kg/ha, rated 3-4 weeks after treatment
  herbicidal effect rating ORYSAT: 9.0
[3]; Rate 0.5000 kg/ha, rated 3-4 weeks after treatment
  herbicidal effect rating ORYSAT: 5.0
[4]; [13]
  herbicidal effect rating, MOOVA: 9.0
[4]; [14]
  herbicidal effect rating, MOOVA: 9.0
[4]; [15]
  herbicidal effect rating, MOOVA: 9.0
[4]; [16]
  herbicidal effect rating, MOOVA: 9.0
[4]; [17]
  herbicidal effect rating, MOOVA: 9.0

## Cn1c(C(F)(F)F)cc(=O)n(-c2ccc3snc(C(=O)O)c3c2)c1=O [Example 315, 1,2-Benzisothiazole-3-carboxylic acid, 5-[3,6-dihydro-3-methyl-2,6-dioxo-4-(trifluoromethyl)-1(2H)-pyrimidinyl]-]
Cyperus iria; [18]
  herbicidal effect rating, CYPIR: 0.0
Cyperus iria; [19]
  herbicidal effect rating, CYPIR: 0.0
Cyperus iria; [20]
  herbicidal effect rating, CYPIR: 5.0
Cyperus iria; [21]
  herbicidal effect rating, CYPIR: 9.0
[1]; [18]
  herbicidal effect rating, ECHORC: 0.0
[1]; [19]
  herbicidal effect rating, ECHORC: 0.0
[1]; [20]
  herbicidal effect rating, ECHORC: 0.0
[1]; [21]
  herbicidal effect rating, ECHORC: 3.0
[2]; [18]
  herbicidal effect rating, CYPSE: 0.0
[2]; [19]
  herbicidal effect rating, CYPSE: 0.0
[2]; [20]
  herbicidal effect rating, CYPSE: 3.0
[2]; [21]
  herbicidal effect rating, CYPSE: 3.0
Sagittaria pygmaea, L.; [18]
  herbicidal effect rating, SAGPY: 0.0
Sagittaria pygmaea, L.; [19]
  herbicidal effect rating, SAGPY: 0.0
Sagittaria pygmaea, L.; [20]
  herbicidal effect rating, SAGPY: 3.0
Sagittaria pygmaea, L.; [21]
  herbicidal effect rating, SAGPY: 4.0
[3]; [9]
  herbicidal effect rating ORYSAT: 0.0
[3]; [10]
  herbicidal effect rating ORYSAT: 0.0
[3]; [11]
  herbicidal effect rating ORYSAT: 0.0
[3]; [12]
  herbicidal effect rating ORYSAT: 2.0
[4]; [18]
  herbicidal effect rating, MOOVA: 9.0
[4]; [19]
  herbicidal effect rating, MOOVA: 9.0
[4]; [20]
  herbicidal effect rating, MOOVA: 9.0
[4]; [21]
  herbicidal effect rating, MOOVA: 9.0

## CCOc1nc(C(F)(F)F)cc(=O)n1-c1ccc2snc(-c3cc(C)ccc3OCC(=O)OC)c2c1 [Example 246, Methyl {{2-{5-[2-ethoxy-6-oxo-4-(trifluoromethyl)-1(6H)-pyrimidinyl]-1,2-benzisothiazol-3-yl}-p-tolyl}oxy}acetate]
Cyperus iria; [22]
  CYPIR herbicidal effect rating: 0.0
Cyperus iria; [23]
  CYPIR herbicidal effect rating: 2.0
Cyperus iria; [7]
  CYPIR herbicidal effect rating: 4.0
Cyperus iria; [8]
  CYPIR herbicidal effect rating: 4.0
[1]; [22]
  ECHORC herbicidal effect rating: 6.0
[1]; [23]
  ECHORC herbicidal effect rating: 7.0
[1]; [7]
  ECHORC herbicidal effect rating: 9.0
[1]; [8]
  ECHORC herbicidal effect rating: 9.0
[2]; [22]
  CYPSE herbicidal effect rating: 0.0
[2]; [23]
  CYPSE herbicidal effect rating: 0.0
[2]; [7]
  CYPSE herbicidal effect rating: 0.0
Sagittaria pygmaea, L.; [22]
  SAGPY herbicidal effect rating: 0.0
Sagittaria pygmaea, L.; [23]
  SAGPY herbicidal effect rating: 0.0
Sagittaria pygmaea, L.; [7]
  SAGPY herbicidal effect rating: 2.0
Sagittaria pygmaea, L.; [8]
  SAGPY herbicidal effect rating: 2.0
[3]; Rate 0.0313 kg/ha, rated three to four weeks after treatment
  ORYSAT herbicidal effect rating: 0.0
[3]; Rate 0.0625 kg/ha, rated three to four weeks after treatment
  ORYSAT herbicidal effect rating: 1.0
[3]; [11]
  ORYSAT herbicidal effect rating: 2.0
[3]; [12]
  ORYSAT herbicidal effect rating: 2.0
[4]; [22]
  MOOVA herbicidal effect rating: 9.0
[4]; [23]
  MOOVA herbicidal effect rating: 9.0
[4]; [7]
  MOOVA herbicidal effect rating: 9.0
[4]; [8]
  MOOVA herbicidal effect rating: 9.0

## Cn1c(C(F)(F)F)cc(=O)n(-c2ccc3snc(C#N)c3c2)c1=O [Example 373, 1,2-Benzisothiazole-3-carbonitrile, 5-[3,6-dihydro-3-methyl-2,6-dioxo-4-(trifluoromethyl)-1(2H)-pyrimidinyl]-]
Cyperus iria; [5]
  herbicidal effect rating, CYPIR: 6.5
Cyperus iria; [6]
  herbicidal effect rating, CYPIR: 9.0
Cyperus iria; [7]
  herbicidal effect rating, CYPIR: 9.0
Cyperus iria; [8]
  herbicidal effect rating, CYPIR: 9.0
[1]; [5]
  herbicidal effect rating, ECHORC: 6.5
[1]; [6]
  herbicidal effect rating, ECHORC: 9.0
[1]; [7]
  herbicidal effect rating, ECHORC: 9.0
[1]; [8]
  herbicidal effect rating, ECHORC: 9.0
[2]; [5]
  herbicidal effect rating, CYPSE: 2.0
[2]; [6]
  herbicidal effect rating, CYPSE: 5.0
[2]; [7]
  herbicidal effect rating, CYPSE: 7.5
[2]; [8]
  herbicidal effect rating, CYPSE: 8.0
Sagittaria pygmaea, L.; [5]
  herbicidal effect rating, SAGPY: 5.5
Sagittaria pygmaea, L.; [6]
  herbicidal effect rating, SAGPY: 8.5
Sagittaria pygmaea, L.; [7]
  herbicidal effect rating, SAGPY: 9.0
Sagittaria pygmaea, L.; [8]
  herbicidal effect rating, SAGPY: 9.0
[3]; [9]
  herbicidal effect rating ORYSAT: 5.5
[3]; [10]
  herbicidal effect rating ORYSAT: 6.5
[3]; [11]
  herbicidal effect rating ORYSAT: 6.0
[3]; [12]
  herbicidal effect rating ORYSAT: 8.0
[4]; [5]
  herbicidal effect rating, MOOVA: 9.0
[4]; [6]
  herbicidal effect rating, MOOVA: 9.0
[4]; [7]
  herbicidal effect rating, MOOVA: 9.0
[4]; [8]
  herbicidal effect rating, MOOVA: 9.0
